Tests used:
hERG = hERG (Homo sapiens, UniProt Q12809); test: Inhibition of hERG expressed in HEK293 cells at 10 uM by manual patch clamp assay relative to control; type: toxicity, cell-based; conditions: HEK293 cells expressing hERG
[1] = Metabolic stability in human liver microsome assessed as half life at 1 uM measured up to 60 mins in presence of NADPH by LC-MS/MS analysis; type: ADME; conditions: liver microsomes
[2] = target: T1, Protein cereblon/Interleukin-1 receptor-associated kinase 4 (Homo sapiens, UniProt Q9NWZ3+Q96SW2); test: PROTAC activity at CRBN/IRAK4 in human THP-1 cells assessed as induction of IRAK4 degradation incubated for 24 hrs by HiBiT lytic reagent based analysis relative to control; type: cell-based
Target sequence in this assay (Q96SW2 whole entry, looked up, one chain of several): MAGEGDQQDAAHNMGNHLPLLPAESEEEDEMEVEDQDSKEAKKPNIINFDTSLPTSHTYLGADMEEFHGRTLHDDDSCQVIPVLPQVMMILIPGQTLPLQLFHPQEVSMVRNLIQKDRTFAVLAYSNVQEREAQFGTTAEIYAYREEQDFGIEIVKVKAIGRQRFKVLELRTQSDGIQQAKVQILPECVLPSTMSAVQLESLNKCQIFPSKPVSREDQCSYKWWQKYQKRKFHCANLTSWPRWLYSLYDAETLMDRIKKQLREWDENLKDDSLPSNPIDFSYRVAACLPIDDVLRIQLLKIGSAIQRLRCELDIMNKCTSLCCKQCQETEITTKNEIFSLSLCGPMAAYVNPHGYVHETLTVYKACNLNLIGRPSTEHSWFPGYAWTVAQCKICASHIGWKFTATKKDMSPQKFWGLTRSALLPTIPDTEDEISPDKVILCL

[3] = target: T1, Protein cereblon/Interleukin-1 receptor-associated kinase 4; test: PROTAC activity at CRBN/IRAK4 in human THP-1 cells assessed as induction of IRAK4 degradation incubated for 24 hrs by HiBiT lytic reagent based analysis; type: cell-based
Target sequence in this assay (Q96SW2 whole entry, one chain of several): as the sequence (Q96SW2 whole entry, looked up, one chain of several) above

[4] = Metabolic stability in dog liver microsome assessed as half life at 1 uM measured up to 60 mins in presence of NADPH by LC-MS/MS analysis; type: ADME, Canis lupus familiaris; conditions: liver microsomes
[5] = Metabolic stability in mouse liver microsome assessed as half life at 1 uM measured up to 60 mins in presence of NADPH by LC-MS/MS analysis; type: ADME; conditions: liver microsomes
[6] = target: T2, Interleukin-1 receptor-associated kinase 4 (Homo sapiens, UniProt Q9NWZ3); test: Inhibition of IRAK4 (unknown origin)
T2 sequence (Q9NWZ3 whole entry): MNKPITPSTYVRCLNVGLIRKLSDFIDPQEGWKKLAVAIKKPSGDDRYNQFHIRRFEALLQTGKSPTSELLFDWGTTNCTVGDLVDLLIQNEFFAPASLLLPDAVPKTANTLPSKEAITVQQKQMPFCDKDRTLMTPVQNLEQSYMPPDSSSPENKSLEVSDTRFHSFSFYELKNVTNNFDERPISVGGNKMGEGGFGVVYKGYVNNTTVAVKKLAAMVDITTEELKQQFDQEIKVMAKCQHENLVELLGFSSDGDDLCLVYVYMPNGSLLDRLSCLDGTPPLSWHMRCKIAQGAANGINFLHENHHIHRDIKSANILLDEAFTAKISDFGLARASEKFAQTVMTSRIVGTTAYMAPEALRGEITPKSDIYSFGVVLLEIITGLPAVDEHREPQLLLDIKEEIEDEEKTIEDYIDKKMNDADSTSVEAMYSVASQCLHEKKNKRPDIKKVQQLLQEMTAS

hERG, sequence (Q12809 whole entry): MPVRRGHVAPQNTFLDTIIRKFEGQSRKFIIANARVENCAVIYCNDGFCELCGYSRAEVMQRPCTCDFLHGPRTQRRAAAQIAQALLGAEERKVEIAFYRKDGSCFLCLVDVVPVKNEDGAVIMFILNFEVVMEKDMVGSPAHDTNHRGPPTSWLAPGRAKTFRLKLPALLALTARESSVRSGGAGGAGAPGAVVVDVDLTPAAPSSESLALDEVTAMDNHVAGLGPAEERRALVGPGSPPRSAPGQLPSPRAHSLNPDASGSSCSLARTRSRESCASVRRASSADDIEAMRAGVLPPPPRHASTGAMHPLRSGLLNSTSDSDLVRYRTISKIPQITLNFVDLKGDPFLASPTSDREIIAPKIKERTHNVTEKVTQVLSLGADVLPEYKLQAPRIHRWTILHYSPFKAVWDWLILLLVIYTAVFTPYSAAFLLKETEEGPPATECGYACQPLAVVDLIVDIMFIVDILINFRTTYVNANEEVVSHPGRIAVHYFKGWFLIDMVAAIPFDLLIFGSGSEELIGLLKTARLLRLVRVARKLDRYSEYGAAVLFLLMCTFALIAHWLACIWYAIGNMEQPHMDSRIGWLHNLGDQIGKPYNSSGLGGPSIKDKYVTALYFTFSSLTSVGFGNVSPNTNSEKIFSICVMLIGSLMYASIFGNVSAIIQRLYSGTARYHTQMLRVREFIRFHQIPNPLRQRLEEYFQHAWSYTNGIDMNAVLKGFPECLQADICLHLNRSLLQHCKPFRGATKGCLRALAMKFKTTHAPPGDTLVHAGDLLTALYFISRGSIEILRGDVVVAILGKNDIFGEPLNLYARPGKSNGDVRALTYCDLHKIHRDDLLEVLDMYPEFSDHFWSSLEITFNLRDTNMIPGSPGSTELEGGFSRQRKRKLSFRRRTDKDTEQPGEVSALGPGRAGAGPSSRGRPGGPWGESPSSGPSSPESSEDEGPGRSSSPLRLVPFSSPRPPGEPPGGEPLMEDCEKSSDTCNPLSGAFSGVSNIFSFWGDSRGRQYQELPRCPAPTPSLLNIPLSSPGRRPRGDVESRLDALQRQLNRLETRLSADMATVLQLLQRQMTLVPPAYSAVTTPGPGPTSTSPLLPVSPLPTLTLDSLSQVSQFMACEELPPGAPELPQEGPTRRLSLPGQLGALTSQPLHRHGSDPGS

| SMILES | inhibition at 10 µM (hERG) | half-life at 1 µM [1] | Emax [2] | DC50 [3] | half-life at 1 µM [4] | half-life at 1 µM [5] | IC50 [6] |
| --- | --- | --- | --- | --- | --- | --- | --- |
| Cn1c(=O)n(C2CCC(=O)NC2=O)c2cccc(C#CCO[C@H]3CC[C@H](CN4CCC5(CC4)Cc4cc(NC(=O)c6cnn7cccnc67)c(N6CCC(C(=O)O)CC6)cc4O5)CC3)c21 (some centres not stated) | 43% | > 3.07 h | 38% | 12 nM | > 3.07 h | > 3.07 h |  |
| CN1CCC2(CC1)Cc1cc(NC(=O)c3cnn4cccnc34)c(N3CCC(CO)CC3)cc1O2 |  |  |  |  |  |  | 0.91 nM |
